# Data reported in patent US4540682A, “Pharmaceutical peptides, preparation, use and intermediates” (Burroughs Wellcome Co., priority 1983, dated 1985).
# Tests used:
# Male mice (CFLP strain) = assay: Hotplate test; type: in vivo; settings: subcutaneous; test repeated 15 mins. after treatment; as free peptide where appropriate; NE = no effect
# From the text: (§1) (1) Both the hotplate test (Woolfe and MacDonald, J. Pharmacol. Exp. Ther. 80: 300, 1944) and the irritant-induced writhing (stretch) test (Vander Wende and Margolin, Fed. Proc. 15: 494, 1956) are standard in the art for the investigation of analgesic activity. Whereas it is believed that the pain in the latter can be ameliorated either centrally or peripherally, it is thought that that induced in the hotplate test is affected only at the central level.
# Male mice (CFLP strain, Hacking and Churchill) were individually placed in a copper-bottomed perspex box suspended in a water bath at 55° C. and observed for signs of discomfort such as shaking or licking the paws, the reaction time (up to a maximum of 30 secs.) being recorded. Groups of five animals then received either a test compound or saline vehicle (0.85%) control by subcutaneous injection, the test being repeated at 15 mins. after treatment. The ED50 figures for the test compounds were calculated from the number of animals having a posttreatment reaction time which was twice the pretreatment figure.
# female CD1 mice = assay: Irritant-induced writhing test, phenylbenzoquinone (PBQ); type: in vivo; settings: Mus musculus, po, 0.5 h; p.o.; *test compound administered 30 min. prior to PBQ; read-out: (B) Writhing PBQ ED50 p.o.
# From the text: as §1
# (ii) Phenylbenzoquinone (PBQ). This test was carried out in a parallel manner to that employing acetic acid, except that the period over which the writhing/stretching movements were counted began 10 mins. after administration of the PBQ irritant, the latter being given at a dosage of 2.5 mg/kg and in a dose volume of 10 ml/kg. The ED50 figures for the test compounds were calculated, using linear regression analysis, as the dose in the presence of which only half the number of writhes/stretches was induced compared with the controls.
SMILES,(A) Hotplate ED50 (Male mice (CFLP strain)),ED50 (female CD1 mice)
COc1ccc2c(c1)c(CC(=O)O)c(C)n2C(=O)c1ccc(Cl)cc1 [Indomethacin],NE @ 100,
CN1CC[C@]23c4c5ccc(O)c4O[C@H]2[C@@H](O)C=C[C@H]3[C@H]1C5 [Morphine],,3.5 mg/kg
CC(C)=CCN1CCC2(C)c3cc(O)ccc3CC1C2C (stereo not drawn) [Pentazocine],NE @ 100,
